Patent publication US10155810B2, “Provasopressin antagonists and uses thereof” (Woomera Therapeutics, Inc., priority 2011, dated 2018)

Tested on: recurrent H82 SCLC cells xenografts
Assay: H82 SCLC xenograft, combination with cyclophosphamide
Assay type: in vivo, nu/nu mice
Settings: cyclophosphamide 50 mg/kg daily for 3 days, then 100 μg MAG-1 daily for 11 days, i.p.
Method: Three groups of nu/nu mice (8 animal per group) were injected with 1×10^7 recurrent H82 SCLC cells per mouse s.c. on the right flank, and the tumors were allowed to grow to an average of about 300 mm^3 in about 14 days. All treatment was carried out by injection intraperitoneally.

## O=P1(N(CCCl)CCCl)NCCCO1 (stereo not shown) [cyclophosphamide]
  efficacy of combined therapy on tumor growth: synergistic efficacy
